We go through one compound from ChEMBL document CHEMBL4028831, “Improvement of hERG-ROMK index of spirocyclic ROMK inhibitors through scaffold optimization and incorporation of novel pharmacophores” (Bioorg Med Chem Lett, 2017).

Molecules are shown by their SMILES. The source made the active and inactive calls. The calls are words filed in the database; no cut-off is given here. Bounds are passed on as bounds.

One data set deals with Rattus norvegicus. Nature of the data set: Antihypertensive activity in rat spontaneous hypertensive model assessed as induction of natriuresis at 3 mg/kg, po qd measured after 3 days. It is filed as functional, organism-based.
A short description of data set [1]: Fraction unbound in rat plasma. The class given is ADME, cell-free.
The target in data set [2] is T1, Cytochrome P450 3A4 (Homo sapiens, UniProt P08684). Nature of the data set: Time dependent inhibition of CYP3A4 (unknown origin) in absence of NADPH. The class given is ADME.
The nature of data set [3]: Volume of distribution at steady state in Wistar Han rat at 1 mg/kg, iv or 2 mg/kg, po. To be noted: in vivo.
The target of data set [4] is Sodium channel protein type 5 subunit alpha (Homo sapiens, UniProt Q14524). Nature of the data set: Inhibition of Nav1.5 (unknown origin).
Another data set concerns Cavia porcellus. Nature of the data set: Cardiotoxicity in anesthetized cardiovascular guinea pig model assessed as prolongation of QTc interval at 7 mg/kg administered as iv infusion relative to control. It is filed as toxicity, organism-based. The settings on record: in vivo.
Data set [5] in a line: Unbound fraction in guinea pig plasma at 7 mg/kg administered as iv infusion. The settings on record: in vivo. The class given is ADME, organism-based, Cavia porcellus.
Data set [6] addresses T1, Cytochrome P450 3A4. Nature of the data set: Time dependent inhibition of CYP3A4 (unknown origin) in presence of NADPH. It is filed as ADME.
The target of data set [7] is T2, ATP-sensitive inward rectifier potassium channel 1 (Rattus norvegicus, UniProt P35560).
T2 sequence (P35560 whole entry): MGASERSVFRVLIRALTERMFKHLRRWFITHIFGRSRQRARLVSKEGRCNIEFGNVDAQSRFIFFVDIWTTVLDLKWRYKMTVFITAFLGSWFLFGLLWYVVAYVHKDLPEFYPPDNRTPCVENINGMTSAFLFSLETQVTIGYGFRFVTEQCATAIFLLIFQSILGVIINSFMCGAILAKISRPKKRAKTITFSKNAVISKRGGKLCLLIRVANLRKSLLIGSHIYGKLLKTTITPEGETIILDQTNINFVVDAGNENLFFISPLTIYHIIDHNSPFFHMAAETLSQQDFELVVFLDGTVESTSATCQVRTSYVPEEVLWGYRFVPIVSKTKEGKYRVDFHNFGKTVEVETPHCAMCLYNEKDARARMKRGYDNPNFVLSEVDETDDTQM
Nature of the data set: Inhibition of rat ROMK expressed in HEK293 cells after 30 mins by FLIPR based thallium flux assay. The class given is cell-based.

T1 sequence (P08684 whole entry): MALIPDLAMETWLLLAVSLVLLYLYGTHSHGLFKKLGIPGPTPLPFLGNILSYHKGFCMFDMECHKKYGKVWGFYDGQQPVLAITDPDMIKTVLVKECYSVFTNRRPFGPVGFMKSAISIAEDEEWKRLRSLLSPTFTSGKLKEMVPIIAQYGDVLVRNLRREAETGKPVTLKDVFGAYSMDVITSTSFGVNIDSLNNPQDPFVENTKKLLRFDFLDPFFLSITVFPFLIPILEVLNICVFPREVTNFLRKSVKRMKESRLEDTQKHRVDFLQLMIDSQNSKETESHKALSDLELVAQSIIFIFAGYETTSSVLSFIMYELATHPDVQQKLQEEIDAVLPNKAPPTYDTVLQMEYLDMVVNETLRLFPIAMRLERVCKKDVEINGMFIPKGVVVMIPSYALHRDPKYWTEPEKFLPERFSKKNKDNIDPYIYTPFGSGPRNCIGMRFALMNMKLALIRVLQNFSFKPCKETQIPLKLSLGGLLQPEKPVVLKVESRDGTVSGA
Sequence of Sodium channel protein type 5 subunit alpha (Q14524 whole entry, the tested form may be a part): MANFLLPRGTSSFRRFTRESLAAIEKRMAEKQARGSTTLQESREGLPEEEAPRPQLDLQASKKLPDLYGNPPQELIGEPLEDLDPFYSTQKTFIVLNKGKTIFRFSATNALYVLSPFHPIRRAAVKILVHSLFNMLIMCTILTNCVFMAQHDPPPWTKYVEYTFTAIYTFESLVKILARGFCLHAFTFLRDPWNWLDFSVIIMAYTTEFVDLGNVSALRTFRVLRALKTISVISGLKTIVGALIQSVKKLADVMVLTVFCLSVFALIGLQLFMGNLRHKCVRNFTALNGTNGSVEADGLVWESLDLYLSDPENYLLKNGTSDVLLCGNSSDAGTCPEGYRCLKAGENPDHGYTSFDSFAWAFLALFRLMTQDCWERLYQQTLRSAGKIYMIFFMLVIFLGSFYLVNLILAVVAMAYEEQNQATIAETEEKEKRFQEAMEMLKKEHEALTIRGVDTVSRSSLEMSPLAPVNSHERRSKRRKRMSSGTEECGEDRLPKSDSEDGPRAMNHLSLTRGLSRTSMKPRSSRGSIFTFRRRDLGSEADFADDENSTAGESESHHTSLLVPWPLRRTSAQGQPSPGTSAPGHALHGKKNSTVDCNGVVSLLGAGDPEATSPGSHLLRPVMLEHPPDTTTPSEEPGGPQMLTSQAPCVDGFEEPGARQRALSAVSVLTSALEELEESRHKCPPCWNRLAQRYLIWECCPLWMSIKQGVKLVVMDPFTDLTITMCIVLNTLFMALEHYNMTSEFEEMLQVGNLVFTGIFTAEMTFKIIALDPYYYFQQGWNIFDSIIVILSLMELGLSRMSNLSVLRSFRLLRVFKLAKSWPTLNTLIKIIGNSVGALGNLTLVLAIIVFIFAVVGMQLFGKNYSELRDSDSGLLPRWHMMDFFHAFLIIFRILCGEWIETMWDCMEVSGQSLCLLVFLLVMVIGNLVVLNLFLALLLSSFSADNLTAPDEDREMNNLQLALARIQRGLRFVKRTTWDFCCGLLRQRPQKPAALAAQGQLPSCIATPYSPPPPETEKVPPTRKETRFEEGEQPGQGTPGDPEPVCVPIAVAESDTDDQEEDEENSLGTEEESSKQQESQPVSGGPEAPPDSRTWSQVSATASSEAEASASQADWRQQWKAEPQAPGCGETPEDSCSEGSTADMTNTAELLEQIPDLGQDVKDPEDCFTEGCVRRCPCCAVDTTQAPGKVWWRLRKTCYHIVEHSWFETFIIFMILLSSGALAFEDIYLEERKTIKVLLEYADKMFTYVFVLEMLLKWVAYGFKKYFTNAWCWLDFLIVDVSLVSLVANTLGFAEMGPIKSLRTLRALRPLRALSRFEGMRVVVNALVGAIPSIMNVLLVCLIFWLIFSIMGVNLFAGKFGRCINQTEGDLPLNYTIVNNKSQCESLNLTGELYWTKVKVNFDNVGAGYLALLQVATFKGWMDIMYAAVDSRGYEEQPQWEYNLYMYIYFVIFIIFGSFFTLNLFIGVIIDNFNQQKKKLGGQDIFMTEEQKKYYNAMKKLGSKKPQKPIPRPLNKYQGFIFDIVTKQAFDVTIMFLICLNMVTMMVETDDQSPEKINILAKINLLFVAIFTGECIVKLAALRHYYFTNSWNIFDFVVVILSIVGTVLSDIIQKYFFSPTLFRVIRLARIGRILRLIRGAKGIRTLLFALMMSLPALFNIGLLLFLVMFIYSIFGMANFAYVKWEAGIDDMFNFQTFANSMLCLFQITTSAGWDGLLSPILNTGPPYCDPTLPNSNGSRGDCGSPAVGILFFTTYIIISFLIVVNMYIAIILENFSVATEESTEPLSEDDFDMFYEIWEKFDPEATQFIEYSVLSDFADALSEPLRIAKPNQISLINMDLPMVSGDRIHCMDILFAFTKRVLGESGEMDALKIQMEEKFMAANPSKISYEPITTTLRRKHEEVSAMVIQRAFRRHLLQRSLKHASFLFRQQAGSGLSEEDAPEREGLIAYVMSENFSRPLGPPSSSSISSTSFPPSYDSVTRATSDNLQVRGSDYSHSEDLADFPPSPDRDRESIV

In general, fraction unbound refers to free concentration divided by total concentration. High values mean much free substance, low ones little free substance. The IC50 is the midpoint of a concentration-inhibition curve. As for `Cc1c([C@@H](O)CN2CCC3(CC2)CCN(c2ccc(=O)n(C)n2)C3=O)ccc2c1COC2=O`, in the data set with Rattus norvegicus, the result was Active. Moreover, in data set [1], the unbound share (fraction unbound) came to 0.455. The IC50 was over 50 µM at Cytochrome P450 3A4 [2], over 30 µM in data set [4], over 50 µM on Cytochrome P450 3A4 [6] and 0.038 µM in data set [7]. Moreover, the Vd in [3] was 3.3 L/kg. Moreover, in the data set on Cavia porcellus, the Activity worked out at 12%. For the same compound, the “Cp(f)” value in data set [5] is 13.5 µM.
